From patent US5760050A, “Antipsychotic method utilizing certain tetrahydrochromeno[3,4-c]pyridin-5-ones” (Warner-Lambert Company, priority 1997, dated 1998)
Counter-ions that a name gives are not always drawn.

Experiments:
[1] = molecular target: T1, human D4 dopamine receptor (Homo sapiens, UniProt P21917); assay: inhibition of [^3 H]spiperone binding to the human D4 dopamine receptor
T1 construct: expressed in transfected cells
T1 sequence (P21917 1-419): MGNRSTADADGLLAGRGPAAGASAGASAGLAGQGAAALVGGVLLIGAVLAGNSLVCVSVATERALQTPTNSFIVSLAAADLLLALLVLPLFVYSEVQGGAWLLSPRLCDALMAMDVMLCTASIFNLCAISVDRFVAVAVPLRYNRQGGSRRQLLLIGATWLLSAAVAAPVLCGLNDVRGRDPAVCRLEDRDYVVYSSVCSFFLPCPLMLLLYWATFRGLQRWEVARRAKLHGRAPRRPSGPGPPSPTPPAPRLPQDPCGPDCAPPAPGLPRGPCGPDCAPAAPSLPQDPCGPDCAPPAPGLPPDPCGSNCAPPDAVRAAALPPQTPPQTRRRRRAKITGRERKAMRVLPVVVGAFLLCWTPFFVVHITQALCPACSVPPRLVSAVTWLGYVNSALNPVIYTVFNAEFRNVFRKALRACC
Experimental: (§1) Compounds of Formula I were tested for their ability to bind to dopamine receptors as measured by their inhibition of [^3 H]spiperone binding to the human D2 and D3 receptors in an assay described by MacKenzie R. G., VanLeeuwen D., Pugsley T. A., et al., "Characterization of the human dopamine D3 receptor expressed in transfected cell lines." Eur. J. Pharmacol.-Mol. Pharmacol., 1994;266:79-85; for the human D4 dopamine receptor in an assay described by Pugsley T. A., David M. D., Akunne H. C., et al., "CI-1007, a dopamine partial agonist and potential antipsychotic agent. I. Neurochemical Effects." J. Pharmacol. Exp. Ther., 1995;274:898-911; and for ability to block the action of an agonist in a [^3 H]thymidine incorporation assay described by Lajiness N. E., Chio C. L., Huff R. M., "D2 dopamine receptor stimulation of mitogenesis in transfected Chinese hamster ovary cells: relationship to dopamine stimulation of tyrosine phosphorylations." J. Pharmacol. Exp. Ther., 1993;267:1573-81. This test determines the agonist/antagonist character of a compound by measuring [^3 H]thymidine uptake in Chinese hamster ovary (CHO) pro-5 cells expressing the dopamine D4 receptor. Agonists, such as quinpirole, promote cell growth and subsequent [^3 H]thymidine incorporation, while antagonists block the action of agonists. […] The above articles are incorporated herein by reference for their assay methodology.

[2] = molecular target: T2, human D3 receptor (Homo sapiens, UniProt P35462); assay: inhibition of [^3 H]spiperone binding to the human D3 receptor; details: read-out: Dopamine Receptor Binding (Ki, nM) D3
T2 construct: expressed in transfected cells
Experimental: as §1

[3] = molecular target: T3, human D2 receptor (Homo sapiens, UniProt P14416); assay: inhibition of [^3 H]spiperone binding to the human D2 receptor; details: read-out: Dopamine Receptor Binding (Ki, nM) D2
T3 construct: expressed in transfected cells
Experimental: as §1

[4] = test system: schizophrenia; details: in vivo; cited from earlier work
[5] = test system: dopamine D4 receptor; details: D4 vs D2; cited from earlier work

T2 sequence (P35462 whole entry): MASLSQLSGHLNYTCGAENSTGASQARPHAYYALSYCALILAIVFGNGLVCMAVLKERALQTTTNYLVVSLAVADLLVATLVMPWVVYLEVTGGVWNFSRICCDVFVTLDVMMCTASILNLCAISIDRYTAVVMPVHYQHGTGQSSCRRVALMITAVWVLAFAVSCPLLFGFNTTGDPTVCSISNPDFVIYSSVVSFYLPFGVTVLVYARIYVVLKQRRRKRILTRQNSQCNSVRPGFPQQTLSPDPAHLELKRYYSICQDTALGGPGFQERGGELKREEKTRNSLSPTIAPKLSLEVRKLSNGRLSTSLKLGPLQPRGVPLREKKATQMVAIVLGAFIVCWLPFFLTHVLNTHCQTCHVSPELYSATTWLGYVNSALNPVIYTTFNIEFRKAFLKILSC
T3 sequence (P14416 whole entry): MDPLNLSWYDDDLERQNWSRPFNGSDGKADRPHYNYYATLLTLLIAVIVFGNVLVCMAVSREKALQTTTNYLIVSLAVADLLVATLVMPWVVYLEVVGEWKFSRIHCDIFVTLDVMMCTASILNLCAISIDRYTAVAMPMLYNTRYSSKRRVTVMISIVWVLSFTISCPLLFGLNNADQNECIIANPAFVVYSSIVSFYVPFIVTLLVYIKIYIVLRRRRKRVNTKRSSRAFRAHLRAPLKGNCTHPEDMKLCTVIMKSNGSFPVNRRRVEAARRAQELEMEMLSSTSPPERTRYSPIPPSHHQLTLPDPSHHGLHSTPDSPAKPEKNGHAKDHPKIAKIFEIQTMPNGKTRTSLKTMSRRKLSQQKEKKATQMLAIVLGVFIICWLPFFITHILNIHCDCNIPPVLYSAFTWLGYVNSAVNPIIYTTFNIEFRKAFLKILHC

SMILES	Ki [1]	Ki [2]	Ki [3]	also measured
COc1ccc2c3c(c(=O)oc2c1)CN(Cc1ccccc1)CC3 [Example 1, 3-Benzyl-8-methoxy-1,2,3,4-tetrahydro-chromeno[3,4-c]-pyridin-5-one]	1.5 nM	60 nM	–	–
COc1ccc2c3c(c(=O)oc2c1)CN(Cc1ccc(C)cc1)CC3 [Example 3, 8-Methoxy-3-(4-methyl-benzyl)-1,2,3,4-tetrahydro-chromeno[3,4-c]pyridin-5-one]	2.6 nM	491 nM	–	–
COc1ccc2c3c(c(=O)oc2c1)CN(Cc1ccc(Cl)c(Cl)c1)CC3 [Example 4, 3-(3,4-Dichloro-benzyl)-8-methoxy-1,2,3,4-tetrahydro-chromeno[3,4-c]pyridin-5-one]	60.9 nM	–	–	–
COc1ccc2c3c(c(=O)oc2c1)CN(Cc1ccc([N+](=O)[O-])cc1)CC3 [Example 5, 8-Methoxy-3-(4-nitro-benzyl)-1,2,3,4-tetrahydro-chromeno[3,4-c]pyridin-5-one]	7.53 nM	–	> 5880 nM	–
COc1cc2oc(=O)c3c(c2cc1OC)CCN(Cc1ccccc1)C3 [Example 6, 3-Benzyl-8,9-dimethoxy-1,2,3,4-tetrahydro-chromeno[3,4-c]pyridin-5-one]	59 nM	–	–	–
Cc1cc2oc(=O)c3c(c2cc1O)CCN(Cc1ccccc1)C3 [Example 7, 3-Benzyl-9-hydroxy-8-methyl-1,2,3,4-tetrahydro-chromeno[3,4-c]pyridin-5-onehydrochloride]	8.01 nM	295 nM	1900 nM	–
Cc1c(O)cc2oc(=O)c3c(c2c1O)CCN(Cc1ccccc1)C3 [Example 8, 3-Benzyl-8,10-dihydroxy-9-methyl-1,2,3,4-tetrahydro-chromeno[3,4-c]pyridin-5-one hydrochloride]	44.3 nM	–	–	–
COc1ccc2c3c(c(=O)oc2c1)CN(Cc1ccc(Cl)cc1)CC3 [Example 9, 3-(4-Chloro-benzyl)-8-methoxy-1,2,3,4-tetrahydro-chromeno[3,4-c]pyridin-5-one]	7.3 nM	11700 nM	> 5880 nM	–
COc1ccc2c3c(c(=O)oc2c1)CN(Cc1ccncc1)CC3 [Example 10, 8-Methoxy-3-pyridin-4-ylmethyl-1,2,3,4-tetrahydro-chromeno[3,4-c]pyridin-5-one]	73.5 nM	–	–	–
COc1ccc2c3c(c(=O)oc2c1)CN(Cc1ccnc2ccccc12)CC3 [Example 11, 8-Methoxy-3-quinolin-4-ylmethyl-1,2,3,4-tetrahydro-chromeno[3,4-c]pyridin-5-one]	34.3 nM	–	–	–
COc1ccc2c3c(c(=O)oc2c1)CN(Cc1cc(OC)c(OC)c(OC)c1)CC3 [Example 12, 8-Methoxy-3-(3,4,5-trimethoxy-benzyl)-1,2,3,4-tetrahydro-chromeno[3,4-c]pyridin-5-one]	21.3 nM	3670 nM	2670 nM	–
COc1ccc2c3c(c(=O)oc2c1)CN(Cc1ccc(C(F)(F)F)cc1)CC3 [Example 13, 8-Methoxy-3-(4-trifluoromethyl-benzyl)-1,2,3,4-tetrahydro-chromeno[3,4-c]pyridin-5-one]	8.18 nM	966 nM	–	–
COc1ccc(CN2CCc3c(c(=O)oc4cc(OC)ccc34)C2)cc1 [Example 14, 8-Methoxy-3-(4-methoxy-benzyl)-1,2,3,4-tetrahydro-chromeno[3,4-c]pyridin-5-one]	84.3 nM	–	–	–
COc1ccc2c3c(c(=O)oc2c1)CN(Cc1cccc(Cl)c1)CC3 [Example 15, 3-(3-Chloro-benzyl)-8-methoxy-1,2,3,4-tetrahydro-chromeno[3,4-c]pyridin-5-one]	17.2 nM	2630 nM	–	–
COc1ccc2c3c(c(=O)oc2c1)CN(Cc1ccccc1Cl)CC3 [Example 16, 3-(2-Chloro-benzyl)-8-methoxy-1,2,3,4-tetrahydro-chromeno[3,4-c]pyridin-5-one]	33.9 nM	2610 nM	> 5880 nM	–
Cc1ccc2c3c(c(=O)oc2c1)CN(Cc1ccccc1)CC3 [Example 17, 3-Benzyl-8-methyl-1,2,3,4-tetrahydro-chromeno[3,4-c]pyridin-5-one]	3.59 nM	338 nM	–	–
COc1ccc2c3c(c(=O)oc2c1)CN(Cc1cccnc1)CC3 [Example 18, 8-Methoxy-3-pyridin-3-ylmethyl-1,2,3,4-tetrahydro-chromeno[3,4-c]pyridin-5-one]	21.3 nM	–	3980 nM	–
COc1ccc2c3c(c(=O)oc2c1)CN(Cc1ccccn1)CC3 [Example 19, 8-Methoxy-3-pyridin-2-ylmethyl-1,2,3,4-tetrahydro-chromeno[3,4-c]pyridin-5-one]	48 nM	–	–	–
Cc1ccc2c3c(c(=O)oc2c1)CN(Cc1ccc(Cl)cc1)CC3 [Example 20, 3-(4-Chloro-benzyl)-8-methyl-1,2,3,4-tetrahydro-chromeno[3,4-c]pyridin-5-one]	10.6 nM	–	–	–
COc1cc2oc(=O)c3c(c2cc1OC)CCN(Cc1ccc(Cl)cc1)C3 [Example 21, 3-(4-Chloro-benzyl)-8,9-dimethoxy-1,2,3,4-tetrahydro-chromeno[3,4-c]pyridin-5-one]	8.46 nM	–	> 5880 nM	–
COc1ccc2c3c(c(=O)oc2c1)CN(CCc1ccccc1)CC3 [Example 22, 8-Methoxy-3-phenethyl-1,2,3,4-tetrahydro-chromeno[3,4-c]pyridin-5-one]	6.87 nM	591 nM	> 5880 nM	–
COc1cc2oc(=O)c3c(c2cc1OC)CCN(CCc1ccccc1)C3 [Example 23, 8,9-Dimethoxy-3-phenethyl-1,2,3,4-tetrahydro-chromeno[3,4-c]pyridin-5-one hydrochloride]	32.6 nM	–	–	–
COc1ccc2c3c(c(=O)oc2c1OC)CN(Cc1ccccc1)CC3 [Example 24, 3-Benzyl-7,8-dimethoxy-1,2,3,4-tetrahydro-chromeno[3,4-c]pyridin-5-one]	16.2 nM	–	–	–
CN1CCN(C2=Nc3cc(Cl)ccc3Nc3ccccc32)CC1 [clozapine]	–	–	–	improvement of positive and negative symptoms of schizophrenia [4]: improves both the positive and negative symptoms of schizophrenia; incidence of extrapyramidal side effects [4]: low incidence of extrapyramidal side effects; higher affinity for the dopamine D4 receptor than for the D2 receptor [5]: 10 fold
